Assay results from patent US20090069419A1, “MASKED CARBOXYLATE NEOPENTYL SULFONYL ESTER CYCLIZATION RELEASE PRODRUGS OF ACAMPROSATE, COMPOSITIONS THEREOF, AND METHODS OF USE” (priority 2007, published 2009).

What was measured:
[1] = cited from earlier work
[2] = test system: cocaine conditioned mice; settings: 100 mg/kg for 3 days; cited from earlier work
[3] = doses of about 1-2 gm per day, cited from earlier work

| melting point | Structure (SMILES) | mean elimination half-life ([1]; following intravenous infusion (15 min)) | oral bioavailability ([1]; humans, oral) | relapse-like behavior [2] | steady-state plasma concentration [3] | time at which steady-state plasma concentration occurs ([3]; post-dose) |
| --- | --- | --- | --- | --- | --- | --- |
|  | CC(=O)NCCCS(=O)(=O)O [acamprosate, 3-(Acetylamino)propylsulfonic acid] | 3.2 ± 0.2 h | about 11% | attenuated relapse-like behavior | 370 to 640 ng/mL | 3 to 8 h |
| 105.3 to 124.9 °C | CC(=O)NCCCS(=O)(=O)OCC(C)(C)CCC(=O)O [Compound 28, 5-{[3-(Acetylamino)propyl]sulfonyloxy}-4,4-dimethylpentanoic Acid] |  |  |  |  |  |
